Source: US9937250B2, “Immunogenic tumor associated stromal cell antigen peptides and methods of their use” (University of Pittsburgh—Of the Commonwealth System of …, priority 2011, dated 2018)

Experiments:
[1] = test system: CD8+ T cells from HLA-A2+ normal donors or HLA-A2+ melanoma patients; test: In vitro sensitization of human CD8+ T cells with TASA peptide-pulsed autologous DC, IFN-γ ELISA against peptide-pulsed T2 cells; type: cell-based; settings: response = IFN-γ >30 pg/ml and >2 fold HIV-nef control; for Specific CD8+ T Cell Response, HLA-A2+ Normal Donors (of 8): number of responding donors of 8; for Specific CD8+ T Cell Response, HLA-A2+ Melanoma Patients (of 10): number of responding patients of 10
Procedure: The indicated peptides were pulsed onto autologous DC and used to prime and boost CD8^+ T cells isolated from the peripheral blood of eight normal HLA-A2^+ donors or ten HLA-A2^+ patients with melanoma. Seven days after the primary in vitro sensitization (IVS) (melanoma patients) or a secondary IVS boost (normal donors), T cells were analyzed for their reactivity against HLA-A2^+ T2 cells pulsed with the relevant peptide vs. the negative control HIV-nef190-198 peptide. After 24 hours of co-culture, cell-free supernatants were analyzed for levels of secreted IFN-γ using a commercial ELISA. Data are reported in Bar and Whisker plots, with p-values provided for paired pre- versus post-IVS data from normal donors and patients. In addition, p<0.05 was detected for MEL-Post versus ND-Post for the following peptides: DLK1 (309), NG2 (770), NG2 (2238), PDGFRβ (891) and RGS5 (5).
In vitro assessment of human CD8^+ T cell responses against TASA- or TAA-derived peptides. Peripheral blood mononuclear cells (PBMC) were obtained by venipuncture or leukapheresis from HLA-A2^+ normal donors or HLA-A2^+ melanoma patients with written consent under IRB-approved protocols (Table 3). CD8^+ T cells were then isolated by MACS (Miltenyi Biotec, Auburn, Calif.) and either not stimulated or stimulated with autologous, TASA peptide-pulsed DC as previously described (Tatsumi et al., Cancer Res., 63:4481-4489, 2003). Normal donor T cells were stimulated with TASA peptide-pulsed DC twice on a weekly schedule, with responder T cells harvested for analysis of their specificity 5 days after the booster stimulation (i.e. day 12 of T cell-DC co-culture). Melanoma patient CD8^+ T cells were analyzed after a single round of stimulation with TASA peptide-pulsed, autologous DC (i.e. day 5 of T cell-DC co-culture) as indicated. For DC-based stimulations, DC were pulsed with an equimolar (1 μM each) pool of the TASA peptides (Table 4) for 4 h at 37° C. at 5% CO2 tension. These antigen-loaded DC were then used to stimulate autologous CD8^+ T cells at a T cell-to-DC ratio of 10:1 to generate a bulk population of responder T cells. T cells were maintained in IMDM media supplemented with 10% human AB serum, 100 U/ml penicillin, […], 10 mM L-glutamine and MEM non-essential amino acids (all reagents from Invitrogen, except human AB serum that was purchased from Sigma-Aldrich, St. Louis, Mo.). Responder CD8^+ T cells were analyzed for reactivity against control (HLA-A2^+) T2 cells or T2 cells pulsed with individual TASA or TAA peptides (1 μM for 4 h at 37° C.) at a CD8^+ T cell-to-T2 cell ratio of 5:1 for 24 h. Harvested cell-free supernatants were consequently assessed for hIFN-γ content using a specific ELISA (BD Biosciences, San Diego, Calif.) with a lower detection limit of 4.7 pg/ml.
CD8^+ T cells from HLA-A2^+ normal donors or HLA-A2^+ melanoma patients recognize TASA-derived peptides in vitro. To assess whether the TASA-derived peptides identified in the HHD tumor model were also capable of being recognized by human CD8^+ T cells, IVS was performed using T cells isolated from the peripheral blood of HLA-A2^+ donors or HLA-A2^+ patients with melanoma. DC were pulsed with peptides derived from a given TASA for 4 h at 37° C., then washed and used as stimulator cells for autologous CD8^+ T cells. In cases where more than one peptide existed for a given protein, DC were pulsed with an equimolar (10 μM) mixture of each peptide. Two rounds of IVS using TASA for normal donors and a single-round of IVS using TASA for melanoma patients was applied. HLA-A2^+ normal donors (FIG. 4; Tables 4, 5A and 5B) and melanoma patients (FIG. 4; Tables 4, 5A and 5B) were each capable of recognizing many of the TASA-derived peptides.

CD8+ splenocytes = test: Tc1 response to DC.IL12/peptide vaccination (splenic CD8+ T cell IFN-γ ELISA against peptide-pulsed T2 cells); type: in vivo, HHD mice; settings: DC.IL12 pulsed with peptide(s), two s.c. vaccinations; versus DC only
Text: FIGS. 9A-9B show a series of graphs illustrating induction of specific/protective CD8^+ T cells reactive against TASA as a consequence of DC/peptide-based vaccination. In FIG. 9A, HHD mice (five animals/cohort) were vaccinated twice (d-14, d-7) subcutaneously with PBS or with isologous DC.IL12 pulsed with PBS or synthetic peptides (Table 6) derived from the indicated TASA. In cases where more than 1 peptide was identified for a given target antigen, an equimolar pool of the indicated peptides (each 10 μM) was pulsed onto DC.IL12 and used for vaccination in the relevant cohort. One week after the second immunization, spleens were harvested and splenic CD8^+ T cells isolated using MACS-beads (Miltenyi). T cells were stimulated in vitro for 48 h using the HLA-A2^+ T2 cell line pulsed with relevant TASA vs. irrelevant HIV-nef190-198 ([…]; ref. 24) peptides. Cell-free supernatants were then recovered and IFN-γ levels by ELISA. Data are reported as mean+/−SD for triplicate ELISA determinations, and are representative of 3 independent experiments performed. *p<0.05 vs. HIV-nef control peptide responses. In FIG. 9B, HHD mice were vaccinated twice (days −14 and −7; right flank) subcutaneously with PBS or with isologous DC.IL12 pulsed with PBS or synthetic TASA peptides as indicated in FIG. 1A. In cases where more than 1 peptide is identified for a given target antigen, an equimolar pool of the indicated peptides (each 10 μM) was pulsed onto DC.IL12 and used for vaccination in the relevant cohort. One week after the booster vaccine (i.e. day zero), animals were challenged subcutaneously on their left flank with 2×10^6 MC38 colon carcinoma cells. Tumor growth was then monitored every 3-4 days through day 24. All data represent mean tumor area (in mm^2)+/−SD determined from 5 mice/cohort, and are representative of three independent experiments performed. *p<0.05 versus DC only on the indicated days.
Vaccine Experiments. For prophylactic experiments, HHD mice were immunized subcutaneously on the right flank with 100 μl PBS or PBS containing 10^6 syngenic DC.IL12 cells that had been untreated or pre-pulsed for 4 h at 37° C. with 10 μM synthetic peptide(s). Immunizations occurred on days −14 and −7, with mice subsequently receiving injections of MC38 (2×10^6) tumor cells in the left flank on d0. In all cases, treatment groups contained 5 mice per cohort. For analysis of tumor cellular composition in repeat experiments, MC38 tumors were isolated by surgical resection 10 days after tumor inoculation and prepared for fluorescence imaging, as described below. […] Mice were then untreated or treated with control, syngenic DC.IL12 or DC.IL12 (10^6 cells injected subcutaneously in the left flank on days 7 and 14) pulsed with synthetic TBVA peptides. In some assays, as indicated, in vivo antibody depletions (on days 6, 13 and 20 post-tumor inoculation to assess early involvement or on days 60 and 67 or 180 and 187 to assess late involvement) of protective CD4^+ T cells or CD8^+ T cells were performed and monitored as previously described (Zhao et al., Mol Ther., 19:805-814, 2011). In all cases, tumor size (area) was monitored every 3-4 days and is reported as mean+/−SD in mm^2.
Evaluation of Specific CD8^+ T Cell Responses in HHD Mice. MACS (Miltenyi Biotec) CD8^+ splenocytes were harvested (from 3 mice/group) 7 days after the second round of DC-based vaccination (i.e. day 21 after tumor inoculation) and analyzed for reactivity against unpulsed T2 cells, TBVA peptide-pulsed T2 cells, or day 19 (flow-sorted) B16-derived PDGFRβ^+CD31^negH-2K^b(neg) pericytes or PDGFRβ^negCD31^+H-2K^b(neg) VEC isolated as previously described (Zhao et al., Mol Ther., 19:805-814, 2011). Where indicated, 10 μg of anti-HLA-A2 mAb BB7.2 or control anti-class II mAb L243 (both from ATCC, Manassas, Va.) were added to replicate co-culture wells. After 48 h, supernatants were analyzed for mIFN-γ content by specific ELISA (BD-Biosciences; lower detection limit=31.3 pg/ml). […]

| Sequence | Specific CD8+ T Cell Response, HLA-A2+ Normal Donors (of 8) [1] | Specific CD8+ T Cell Response, HLA-A2+ Melanoma Patients (of 10) [1] | Tc1 Response to Peptide Vaccine (HHD) (CD8+ splenocytes) |
| --- | --- | --- | --- |
| YLQVDLRFL (listed as Homo sapiens) | 0 | 4 |  |
| RLLGNVLVCV (listed as Homo sapiens) | 1 | 1 | + (+, p < 0.05 versus DC only) |
| GMLGMVSGL (listed as Homo sapiens) | 2 | 7 | + (+, p < 0.05 versus DC only) |
| DIWDGIPHV (listed as Homo sapiens) | 0 | 4 | + (+, p < 0.05 versus DC only) |
| LLQERGVAYI (listed as Homo sapiens) | 0 | 2 | + (+, p < 0.05 versus DC only) |
| GLLRFVTAV (listed as Homo sapiens) | 2 | 7 | + (+, p < 0.05 versus DC only) |
| TLSNLSFPV (listed as Homo sapiens) | 0 | 4 |  |
| VIAMFFWLL (listed as Homo sapiens) | 0 | 0 | + (+, p < 0.05 versus DC only) |
| ILGVLTSLV (listed as Homo sapiens) | 2 | 6 | + (+, p < 0.05 versus DC only) |
| RLLVVYPWT (listed as Homo sapiens) | 2 | 6 | + (+, p < 0.05 versus DC only) |
| LLVPTCVFLV (listed as Homo sapiens) | 4 | 4 | + (+, p < 0.05 versus DC only) |
| ILLWEIFTL (listed as Homo sapiens) | 2 | 1 | + (+, p < 0.05 versus DC only) |
| TLFWLLLTL (listed as Homo sapiens) | 1 | 3 | + (+, p < 0.05 versus DC only) |
| NMLGMLSGL (listed as Homo sapiens) | 0 | 0 |  |
| VLLGAVCGV (listed as Homo sapiens) | 2 | 1 | + (+, p < 0.05 versus DC only) |
| TLADFDPRV (listed as Homo sapiens) | 2 | 6 | + (+, p < 0.05 versus DC only) |
| FLNKCETWV (listed as Homo sapiens) | 2 | 4 | + (+, p < 0.05 versus DC only) |
| LILPLLFYL (listed as Homo sapiens) | 0 | 4 | + (+, p < 0.05 versus DC only) |
| RLTPGVHEL (listed as Homo sapiens) | 1 | 4 | + (+, p < 0.05 versus DC only) |
